Laboratory results reported in patent US12404294B2, “Glycolipopeptide biosurfactants” (Croda International Plc, priority 2016, dated 2025).
Values after ≈ are worked out from the molar mass of the structure shown.

Legend:
[1] = Critical micelle concentration and surface tension of water, Du Nouy method (Kibron Delta-8 microtensiometer); type: physicochemical; details: for CMC: degassed deionized water, 24-25° C.; for Minimum Surface Tension: surface tension of water at CMC (water 72 mN/m)
Experimental: As summarized in Table 1, the critical micelle concentrations (CMCs) of NB-RLP1006, NB-RLP978, NB-RLP860, and NB-RLP-1048B were determined by the Du Nouy method utilizing a Kibron Delta-8 multichannel microtensiometer (Kibron Inc., Helsinki, Finland). All samples were prepared in degassed deionized water (Millipore, Etobicoke, ON, CA) at concentrations ranging from 0 to 2.0 mM. All measurements were recorded between 24 and 25° C. and performed in duplicate. The critical micelle concentration of both NB-RLP1006 and NB-RLP978 was 0.20 mM (0.02 wt %). […] The surface activity of NB-RLP1006 was compared to rhamnolipids A and B, which were purified from a commercially available rhamnolipid mixture (R90; AGAE Technologies, Corvallis, OR, USA) by reversed-phase HPLC.

[2] = test system: adult epidermal keratinocytes (HEKa); test: Cytotoxicity testing, alamarBlue, HEKa cells; type: cell-based, human; details: 24 h treatment; for HEKa (MIC90): 90% of growth inhibition; for IC50: Homo sapiens, HEKa
Experimental: (§1) To evaluate the safety profile of the glycolipopeptides, cytotoxicity testing was conducted against two normal human cell lines, BJ fibroblast cells ATCC CRL-2522 and adult epidermal keratinocytes (HEKa; Life Technologies, Carlsbad, CA, USA). […] Life Technologies, Carlsbad, CA, USA) and 50 μg/mL gentamicin (Sigma-Aldrich, St. Louis, MO, USA). Cells were cultured in […]^2 cell culture flasks and incubated at 37° C. in a humidified atmosphere of 5% CO2. For BJ fibroblasts culture media was refreshed every two to three days and cells were not allowed to exceed 80% confluence. […] At 80% confluence, the cells were counted, diluted to 10,000 cells/well in growth medium lacking antibiotics and 90 μL of cell suspension was transferred into the wells of 96-well treated cell culture plates. The plates were incubated as before to allow cells to adhere to the plates for 24 h before treatment. DMSO was used as the vehicle at a final concentration of 1%. […] The fibroblasts and HEKa cells were incubated as previously described for 24 h. All samples were tested in triplicate. […] AlamarBlue (Life Technologies, Carlsbad, CA, USA) was added to each well 24 h after treatment (10% v/v). Fluorescence (560/12 excitation, 590 nm emission) was monitored using a Varioskan Flash Multimode plate reader both at time zero and 4 h after the addition of alamarBlue. After subtraction of fluorescence at time zero from 4 h readings the percentage of cell viability relative to vehicle control wells was calculated.

[3] = test system: BJ fibroblast cells ATCC CRL-2522; test: Cytotoxicity testing, alamarBlue, BJ fibroblasts; type: cell-based, human; details: 24 h treatment; for BJ (MIC90): 90% of growth inhibition; for IC50: Homo sapiens, Fibroblast
Experimental: as §1

[4] = Aqueous solubility (remark); type: physicochemical; details: in words
[5] = Characteristic curvature (Cc) by HLD-NAC model, electrolyte scan with SDHS/toluene; type: physicochemical; details: NB-RLP1006/SDHS mixtures, toluene oil phase, NaCl 0 to 6.0% (w/v)
Experimental: The characteristic curvature (Cc) of NB-RLP1006 was determined using the hydrophilic-lipophilic difference-net average curvature (HLD-NAC) model to calculate the shift in chemical potential when NB-RLP1006 is transferred from the oil to the aqueous phase as a function of salinity by the following general equation: HLD=F(S)−k×EACN+F(A)−∝×ΔT+Cc where F(S) is a function of salinity, k is a coefficient equal to 0.17, EACN (effective alkane carbon number) is the number of carbons in the alkane oil phase, α is a coefficient dependent on the type of surfactant (ionic, ethoxylates, etc), and ΔT is the effect of temperature. Four mixtures of NB-RLP1006 and sodium dihexyl sulfosuccinate (SDHS) were prepared with a total surfactant concentration of 1.8 mg/mL using the following NB-RLP1006/SDHS ratios: 0, 12, 24, and 40 wt % NB-RLP1006. An electrolyte scan was performed for each mixture by varying the NaCl concentration from 0 to 6.0% (w/v). Each mixture was added to an equal volume of toluene, which constituted the oil phase, and shaken vigorously. […] A plot of the NB-RLP1006/SDHS molar ratios versus S* was generated and Cc was calculated from the line of best fit. The Cc value for NB-RLP1006 was determined to be +5.2, a value that reflects the hydrophobic nature of this biosurfactant.

[6] = Emulsification activity assay (emulsification index E24, kerosene); type: physicochemical
Experimental: V. paradoxus RKNM-096 was identified as a biosurfactant producer in a screen aimed at identifying bacterial producers of biosurfactants with emulsifying properties. The assay utilized to identify bacterial producers of biosurfactants was the emulsification activity assay. In this assay cultures were grown in 10 mL of liquid medium in 25 mm×150 mm glass tubes at 30° C. with shaking at 200 rpm for 5 days. After 5 days, the cells were removed by centrifugation and 3.5 mL of cell free culture broth was mixed with 3.5 mL of kerosene in a 13 mm×100 mm test tube with a screw cap tube. The tubes were vortexed for two minutes and then allowed to stand overnight at room temperature after which the height of the emulsion (hemuls) and the total height (htotal) of the liquid in the tube were measured. The emulsification index (E24) was calculated using the equation E24=hemuls/htotal×100%.
(§2) The emulsifying properties of NB-RLP1006 were determined using the emulsification index as described above. […] The emulsification of NB-RLP1006 is pH-dependent with E24 values of 8, 38, and 31% at pH 3, 6, and 8, respectively. The type of emulsion formed by NB-RLP1006 (e.g. oil-in-water or water-in-oil) was determined using the drop dilution test. An emulsion was formed by vigorously mixing a 1 mg/mL solution of RLP1006 in deionized water with an equal volume of kerosene for 1 min. A portion (20 μL) of the emulsion was transferred to 0.5 mL of deionized water and 0.5 mL of kerosene and dilution of the emulsion in each liquid was monitored.

[7] = Drop dilution test for type of emulsion; type: physicochemical; details: 1 mg/mL in deionized water with equal volume of kerosene
Experimental: as §2

Row | Compound | CMC [1] [wt %] | CMC ([1]; duplicate) [mM] | Minimum Surface Tension [1] [mN/m] | HEKa (MIC90) [2] [µg/mL] | IC50 ([2]; error is standard deviation) [µg/mL] | BJ (MIC90) [3] [µg/mL] | IC50 ([3]; error is standard deviation) [µg/mL] | aqueous solubility [4] | characteristic curvature (Cc) [5] | emulsification index (E24) ([6]; 1 mg/mL in deionized water) [%] | emulsification index (E24) ([6]; pH 3) [%] | emulsification index (E24) ([6]; pH 6) [%] | emulsification index (E24) ([6]; pH 8) [%] | type of emulsion formed [7] | HEKa (IC50) ([2]; error is standard deviation) [µg/mL] | BJ (IC50) ([3]; error is standard deviation) [µg/mL]
1 | CCCCCCCC(CC(=O)NC(CO)C(=O)NC(CO)CC(C)C)OC(=O)CC(CCCCCCC)OC(=O)CC(CCCCCCC)OC1OC(C)C(O)C(OC2OC(C)C(O)C(OC(C)=O)C2O)C1O (stereo not drawn) [NB-RLP1048B] | 0.09 | 0.85 | 36.9 | 64 to 128 | 19.3 ± 4 (≈ 18.4 µM) | 32 | 18.7 ± 1.6 (≈ 17.8 µM) | poor aqueous solubility | – | – | – | – | – | – | – | –
2 | CCCCCCCC(CC(=O)NC(CO)C(=O)NC(CO)CC(C)C)OC(=O)CC(CCCCCCC)OC(=O)CC(CCCCCCC)OC1OC(C)C(O)C(OC2OC(C)C(O)C(O)C2O)C1O (stereo not drawn) [NB-RLP1006] | 0.02 | 0.20 | 35.5 | 64 to 128 | 15.5 ± 1.7 (≈ 15.4 µM) | 32 | 19.5 ± 2.4 (≈ 19.4 µM) | – | +5.2 | 53 | 8 | 38 | 31 | oil-in-water (o/w) and o/w | – | –
3 | CCCCCCCC(CC(=O)NC(CO)C(=O)NC(CO)CC(C)C)OC(=O)CC(CCCCCCC)OC(=O)CC(CCCCCCC)OC1OC(C)C(O)C(O)C1O (stereo not drawn) [NB-RLP860] | 0.07 | 0.85 | 36.2 | 128 | 15.5 ± 1.6 (≈ 18 µM) | 32 | 16.3 ± 0.3 (≈ 18.9 µM) | poor aqueous solubility | – | – | – | – | – | – | – | –
4 | CCCC(CC(=O)NC(CO)C(=O)NC(CO)CC(C)C)OC(=O)CC(CCC)OC(=O)CC(CCC)OC1OC(C)C(O)C(OC2OC(C)C(O)C(O)C2O)C1O (stereo not drawn) [NB-RLP978] | 0.02 | 0.20 | 35.5 | – | – | – | – | – | – | – | – | – | – | – | – | –
5 | Zinc pyrithione [reference compound] | – | – | – | 1 | – | 4 | – | – | – | – | – | – | – | – | 0.20 ± 0.001 | 2.2 ± 0.3
